The structures appear in SMILES notation. Entries after “also recorded” stand apart in the source; their conditions may differ.

This is an account of results in patent publication US20160345827A1, “TWO-PHOTON MICROSCOPY IMAGING RETINA CELL DAMAGE” (POLGENIX, INC., priority 2014, published 2016).

Test [1] deals with RPE of Abca4^−/−Rdh8^−/− (DKO) mice. In words: two-photon trans-pupil imaging of fluorescent granules in RPE after bright light. The note with it: 2 mg Ret-NH2 gavage 13 to 16 h prior to 10,000 lux for 60 min; ex vivo imaging 7 and 14 days after light. The text has this:
All animal procedures and experiments were approved by the Institutional Animal Care and Use Committee at Case Western Reserve University and conformed to recommendations of both the American Veterinary Medical Association Panel on Euthanasia and the Association for Research in Vision and Ophthalmology. B6(Cg)-Tyrc-2J/J mice were purchased from The Jackson Laboratory. Abca4^−/−Rdh8^−/− (DKO) and Rpe65^−/− mice were generated and genotyped as previously described. Human opsinGFP fusion, knockin hrhoG/hrhoG mice, expressing human rhodopsinGFP in photoreceptor outer segments were kindly provided by Dr. John H. Wilson (Baylor College of Medicine). […]
After treatment with Ret-NH2 the content of fluorescent retinyl esters increases in the eye as reported previously. […] For quantification of the impact of drug treatment, the same detector settings were used for mice that were treated and not treated with Ret-NH2. […]
The tunable, 690-1050 nm, Chameleon VisionS generated 75 fs laser pulses at 80 MHz pulse repetition frequency. […] In twophoton imaging, the excitation matters most because the emission fluorescence is generated only in the focal spot; therefore, it is critical to achieve a tightly focused excitation beam. […]

The test system of a further test is Abca4^−/−Rdh8^−/− mice. In words: light-induced retinal degeneration in Abca4^−/−Rdh8^−/− mice, TPM and histology at day 7.
In a further test the test system is retinoid cycle. In words: retinoid cycle inhibition before light exposure, LC/MS metabolic profile of retina. Format: in vivo. As to conditions: pretreatment of Abca4^−/−Rdh8^−/− mice several hours before light exposure. Here is the method: At day 3 after light exposure, mouse retinas were dissected and homogenized in 0.3 mL of ice-cold acetonitrile. Samples were vortexed for 30 s followed by centrifugation for 15 min at 16,000×g. Clear supernatants were collected and used directly for LC/MS analyses. Each retinal extract was injected onto a reverse-phase C18 Phenomenex HPLC column (250×4.60 mm; 5 μm) preequilibrated with 5% acetonitrile in water. […] Total ion chromatograms were analyzed with XCMS software available online at the Scripps Center for Metabolomics.
Fluorophores responsible for AF in the retina could be an indicator of global changes in the metabolic profile of this tissue. To evaluate and quantify these changes as well as determine whether they depend on a functional retinoid cycle, we used both genetically altered (Lrat^−/−) and pharmacologically treated (retinylamine) mice with metabolic profiles that were compared with light-exposed and dark-adapted Abca4^−/−Rdh8^−/− mice by using a LC/MS approach. […] To investigate the origin of these light-induced alterations, we first analyzed the metabolic profile of retinal samples isolated from light-exposed lecithin:retinol acyltransferase (LRAT)-deficient mice that cannot produce visual chromophore. […]

As to `CC1=C(/C=C/C(C)=C/C=C/C(C)=C/CN)C(C)(C)CCC1` [retinylamine], the “accumulation of fluorescent granules in the RPE” value in test [1] is given as “no deposits; also recorded: protects RPE”. For the same compound, in the test on Abca4^−/−Rdh8^−/− mice (730 nm and 850 nm excitation, day 7 after light, Ret-NH2 1 mg oral gavage, Apo 1 mg i.p.), the “RPE autofluorescence appearance by TPM” value is given as “increased fluorescence of retinosomes”. Besides, in the test with Abca4^−/−Rdh8^−/− mice (Ret-NH2 1 mg per mouse oral gavage 16 h before, or Apo 1 mg/mouse i.p. 30 min before 10,000 lx light for 60 min, day 7), the “light-induced retinal degeneration (retinal histology)” value is “can be prevented; also recorded: conferred protection”. Further, the “regeneration of visual chromophore in the eye” value with retinoid cycle is recorded as “markedly reduced”.
